According to patent publication US8168592B2 (Amgen Inc., priority 2005, dated 2012):
Where two headings read alike, the source gives them in different places. Square brackets hold non-standard residues; d marks the D form. Peptide text beside a SMILES is read from it. 1Nal = N[C@@H](Cc1cccc2ccccc12)C(=O)O; hArg = N=C(N)NCCCC[C@H](N)C(=O)O; Cit = NC(=O)NCCC[C@H](N)C(=O)O; Phg = N[C@H](C(=O)O)c1ccccc1

How the values were obtained:
[1] = target: T1, CGRP1 receptor (human neuroblastoma cell (SK-N-MC) membrane) (Homo sapiens, UniProt O60894+Q16602); assay: CGRP1 binding assay (125I-hαCGRP displacement)
T1 construct: human neuroblastoma cell (SK-N-MC) membrane suspension; purchased PerkinElmer; host or cells: SK-N-MC human neuroblastoma cell membranes (endogenous receptor)
Procedure: CGRP1 binding experiments. […] The plates were incubated at room temperature for 2 hour with shaking at 60 rpm, then the contents of each well were filtered over 0.5% polyethyleneimine (PEI)-treated (at least one hour) GF/C 96-well filter plates. The GF/C filter plates were washed 6 times with ice-cold 50 mM Tris, pH 7.5 and dried in an oven at 55 C for 1 hour. The bottoms of the GF/C plates were then sealed, and 40 μl Microscint™ 20 was added to each well, then the tops of the GF/C plates were sealed with TopSeal™-A, a press-on adhesive sealing film, and the GF/C plates were counted with TopCount NXT (Packard). The data were analyzed by using ActivityBase (IDBS) or Prizm (GraphPad) software.

CGRP1 receptor = target: T2, CGRP1 receptor (Homo sapiens, UniProt O60894+Q16602); assay: in vitro CGRP1 receptor mediated cAMP assay in SK-N-MC cells; format: cell-based; conditions: read-out: IC50
T2 construct: SK-N-MC cells express CRLR and RAMP1, which form CGRP1 receptor; endogenous in cells; host or cells: SK-N-MC human neuroblastoma cells
In short: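 Human SK-N-MC neuroblastoma cells, which endogenously express CRLR/RAMP1, were plated two days before assay and preincubated in plasma-free medium for 15 minutes at room temperature. Cells were then lysed for 30 minutes at 37° C, and cAMP in the lysates was quantified by competitive cAMP-AP chemiluminescent ELISA.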

[2] = monkey pharmacokinetic studies; conditions: cynomolgus monkey, in vivo, iv, 6 mg/kg
Procedure: Monkey pharmacokinetic studies. […] A complete blood chemistry panel was performed on each monkey prior to each study day to obtain baseline values and ensure hematological recovery. A catheter was placed in the cephalic vein of three male Cynomolgus monkeys (Macaca fascicularis) for blood sampling during the study. For the intravenous (iv) leg of the study, a catheter was also placed in a saphenous vein for infusion of test compound. On each study day, the monkeys were placed in restraining chairs for the first 4 h of the study to facilitate drug administration and blood sampling. For administration of antagonist, each monkey received solubilized peptide (dose and SEQ ID listed in Table 11 below) either as a 30-min intravenous infusion (4 mL/kg/h) or as a single subcutaneous bolus (approx. 1.0 mL/animal). Blood samples were collected from each study animal at various times during and after drug administration, plasma samples (100 μL) were isolated by centrifugation and stored at −70° C. until analysis. For monkeys receiving intravenous infusion, such a sample was also taken at 20 min during the infusion.

T1 sequence (Q16602 23-461): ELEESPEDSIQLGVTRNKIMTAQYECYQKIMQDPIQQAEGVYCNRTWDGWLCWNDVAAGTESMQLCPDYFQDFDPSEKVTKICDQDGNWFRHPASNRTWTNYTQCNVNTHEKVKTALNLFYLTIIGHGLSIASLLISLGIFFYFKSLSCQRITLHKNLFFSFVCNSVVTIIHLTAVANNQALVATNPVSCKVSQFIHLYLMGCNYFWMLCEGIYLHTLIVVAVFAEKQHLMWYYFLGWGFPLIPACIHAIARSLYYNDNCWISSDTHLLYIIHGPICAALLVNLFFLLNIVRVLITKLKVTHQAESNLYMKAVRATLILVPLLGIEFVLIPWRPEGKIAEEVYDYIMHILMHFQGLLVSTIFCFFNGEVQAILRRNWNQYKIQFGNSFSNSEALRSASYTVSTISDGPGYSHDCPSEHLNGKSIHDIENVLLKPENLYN
T1 sequence (O60894 27-148): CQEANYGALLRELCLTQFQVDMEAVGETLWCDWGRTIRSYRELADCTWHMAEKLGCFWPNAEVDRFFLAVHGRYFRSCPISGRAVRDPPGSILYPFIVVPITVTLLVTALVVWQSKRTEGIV
T2 sequence (Q16602 23-461): as the sequence (Q16602 23-461) above
T2 sequence (O60894 27-148): as the sequence (O60894 27-148) above

| Compound | Ki ([1]; Table 3B) [nM] | further results |
| --- | --- | --- |
| CC(=O)N[C@@H](Cc1c[nH]c2ccccc12)C(=O)N[C@H](C(=O)N[C@H](C(=O)N[C@@H](Cc1c[nH]cn1)C(=O)N[C@@H](CCCNC(N)=O)C(=O)N[C@@H](CC(C)C)C(=O)N[C@@H](C)C(=O)NCC(=O)N[C@@H](CC(C)C)C(=O)N[C@@H](CC(C)C)C(=O)N[C@@H](CO)C(=O)N[C@@H](CCCNC(N)=O)C(=O)N[C@@H](CO)C(=O)NCC(=O)NCC(=O)N[C@H](C(=O)N[C@H](C(=O)N[C@@H](CCCCNC(=N)N)C(=O)N[C@@H](CCCCN)C(=O)N[C@@H](CC(N)=O)C(=O)N[C@@H](Cc1ccccc1)C(=O)N[C@H](C(=O)N1CCC[C@H]1C(=O)N[C@H](C(=O)N[C@@H](CC(=O)O)C(=O)N[C@H](C(=O)NCC(=O)N1CCC[C@H]1C(=O)N[C@@H](Cc1cccc2ccccc12)C(=O)N[C@@H](C)C(=O)N[C@@H](Cc1ccccc1)C(N)=O)C(C)C)[C@@H](C)O)C(C)C)C(C)C)C(C)C)[C@@H](C)O)C(C)C [compound 674] (Ac-WVTH[Cit]LAGLLS[Cit]SGGVV[hArg]KNFVPTDVGP[1Nal]AF-NH2) | – | Ki ([1]; Table 3A): 0.64 nM; IC50 (CGRP1 receptor; Table 2A): 1.31 to 1.51 nM |
| CC(C)C[C@H](NC(=O)CNC(=O)[C@H](C)NC(=O)[C@H](CC(C)C)NC(=O)[C@H](CCCNC(=N)N)NC(=O)[C@H](Cc1c[nH]cn1)NC(=O)[C@@H](NC(=O)[C@@H](NC(=O)[C@@H](N)c1ccccc1)C(C)C)[C@@H](C)O)C(=O)N[C@@H](CC(C)C)C(=O)N[C@@H](CO)C(=O)N[C@@H](CCCNC(=N)N)C(=O)N[C@@H](CO)C(=O)NCC(=O)NCC(=O)N[C@H](C(=O)N[C@H](C(=O)N[C@@H](CCCCN)C(=O)N[C@@H](CC(N)=O)C(=O)N[C@@H](CC(N)=O)C(=O)N[C@@H](Cc1ccccc1)C(=O)N[C@H](C(=O)N1CCC[C@H]1C(=O)N[C@H](C(=O)N[C@@H](CC(=O)O)C(=O)N[C@H](C(=O)NCC(=O)N1CCC[C@H]1C(=O)N[C@@H](Cc1ccccc1)C(=O)N[C@@H](C)C(=O)N[C@@H](Cc1ccccc1)C(N)=O)C(C)C)[C@@H](C)O)C(C)C)C(C)C)C(C)C [compound 703] (H-[Phg]VTHRLAGLLSRSGGVVKNNFVPTDVGPFAF-NH2) | 0.19 | – |
| 685 (Ac-WVTHRLAGLLSRSGGVVK(20 kDa PEG)NNFVPTDVGPFAF-NH2) [compound 685] | 155 | – |
| CC(C)C[C@H](NC(=O)CNC(=O)[C@H](C)NC(=O)[C@H](CC(C)C)NC(=O)[C@H](CCCNC(=N)N)NC(=O)[C@H](Cc1c[nH]cn1)NC(=O)[C@@H](NC(=O)[C@@H](NC(=O)[C@H](CO)NC(=O)[C@@H](NC(=O)[C@H](C)NC(=O)[C@@H](NC(=O)[C@H](CC(=O)O)NC(=O)[C@H](CO)NC(=O)[C@H](C)N)[C@@H](C)O)[C@@H](C)O)C(C)C)[C@@H](C)O)C(=O)N[C@@H](CC(C)C)C(=O)N[C@@H](CO)C(=O)N[C@@H](CCCNC(=N)N)C(=O)N[C@@H](CO)C(=O)NCC(=O)NCC(=O)N[C@H](C(=O)N[C@H](C(=O)N[C@@H](CCCCN)C(=O)N[C@@H](CC(N)=O)C(=O)N[C@@H](CC(N)=O)C(=O)N[C@@H](Cc1ccccc1)C(=O)N[C@H](C(=O)N1CCC[C@H]1C(=O)N[C@H](C(=O)N[C@@H](CC(N)=O)C(=O)N[C@H](C(=O)NCC(=O)N[C@@H](CO)C(=O)N[C@@H](CCCCN)C(=O)N[C@@H](C)C(=O)N[C@@H](Cc1ccccc1)C(N)=O)C(C)C)[C@@H](C)O)C(C)C)C(C)C)C(C)C [compound 709] | 12 | – |
| CC(=O)N[C@@H](Cc1c[nH]c2ccccc12)C(=O)N[C@H](C(=O)N[C@H](C(=O)N[C@@H](Cc1c[nH]cn1)C(=O)N[C@@H](CCCNC(N)=O)C(=O)N[C@@H](CC(C)C)C(=O)N[C@@H](C)C(=O)NCC(=O)N[C@@H](CC(C)C)C(=O)N[C@@H](CC(C)C)C(=O)N[C@@H](CO)C(=O)N[C@@H](CCCNC(N)=O)C(=O)N[C@@H](CO)C(=O)NCC(=O)NCC(=O)N[C@H](C(=O)N[C@H](C(=O)N[C@@H](CCCCNC(=N)N)C(=O)N[C@@H](CCCCN)C(=O)N[C@@H](CC(N)=O)C(=O)N[C@@H](Cc1ccccc1)C(=O)N[C@H](C(=O)N1CCC[C@H]1C(=O)N[C@H](C(=O)N[C@@H](CC(=O)O)C(=O)N[C@H](C(=O)NCC(=O)N1[C@H](C(=O)N[C@@H](Cc2ccccc2)C(=O)N[C@@H](C)C(=O)N[C@@H](Cc2ccccc2)C(N)=O)C[C@@H]2CCCC[C@@H]21)C(C)C)[C@@H](C)O)C(C)C)C(C)C)C(C)C)[C@@H](C)O)C(C)C [SEQ ID NO: 658] | – | AUC0-inf [2]: 17000 ng·h/mL; AUC0-t [2]: 16900 ng·h/mL; MRT [2]: 25.2 min; Vd [2]: 0.174 L/kg; clearance [2]: 6.65 mL/min/kg; half-life [2]: 48 min |
| CC(C)[C@H](NC(=O)[C@@H](N)Cc1ccccc1)C(=O)N1CCC[C@H]1C(=O)N[C@H](C(=O)N[C@@H](CC(=O)O)C(=O)N[C@@H](C(=O)NCC(=O)N1CCC[C@H]1C(=O)N[C@@H](Cc1ccccc1)C(=O)N[C@@H](C)C(=O)N[C@@H](Cc1ccccc1)C(N)=O)C(C)C)[C@@H](C)O [compound 711] | > 1000 | – |
| Ac-WVTHRLAGLLSRSGGVVKNNFVPTDVGPFAF-NH2 [compound 684] | 0.08 | – |
| CC(C)[C@H](NC(=O)[C@H](CC(=O)O)NC(=O)[C@@H](NC(=O)[C@@H]1CCCN1C(=O)[C@@H](NC(=O)[C@@H](N)Cc1ccccc1)C(C)C)[C@@H](C)O)C(=O)NCC(=O)N1CCC[C@H]1C(=O)N[C@@H](Cc1ccccc1)C(=O)N[C@H](C)C(=O)N[C@@H](Cc1ccccc1)C(N)=O [compound 715] | > 1000 | – |

More lines, main results first:

| Ki ([1]; Table 3B) [nM] | Compound | further results |
| --- | --- | --- |
| 0.14 | CC(C)C[C@H](NC(=O)CNC(=O)[C@H](C)NC(=O)[C@H](CC(C)C)NC(=O)[C@H](CCCNC(=N)N)NC(=O)[C@H](Cc1c[nH]cn1)NC(=O)[C@@H](NC(=O)[C@@H](NC(=O)[C@@H](N)Cc1cccc2ccccc12)C(C)C)[C@@H](C)O)C(=O)N[C@@H](CC(C)C)C(=O)N[C@@H](CO)C(=O)N[C@@H](CCCNC(=N)N)C(=O)N[C@@H](CO)C(=O)NCC(=O)NCC(=O)N[C@H](C(=O)N[C@H](C(=O)N[C@@H](CCCCN)C(=O)N[C@@H](CC(N)=O)C(=O)N[C@@H](CC(N)=O)C(=O)N[C@@H](Cc1ccccc1)C(=O)N[C@H](C(=O)N1CCC[C@H]1C(=O)N[C@H](C(=O)N[C@@H](CC(=O)O)C(=O)N[C@H](C(=O)NCC(=O)N1CCC[C@H]1C(=O)N[C@@H](Cc1ccccc1)C(=O)N[C@@H](C)C(=O)N[C@@H](Cc1ccccc1)C(N)=O)C(C)C)[C@@H](C)O)C(C)C)C(C)C)C(C)C [compound 701] (H-[1Nal]VTHRLAGLLSRSGGVVKNNFVPTDVGPFAF-NH2) | – |
| > 1000 | CC(C)[C@H](NC(=O)[C@H](CC(=O)O)NC(=O)[C@@H](NC(=O)[C@@H]1CCCN1C(=O)[C@@H](NC(=O)[C@@H](N)Cc1ccccc1)C(C)C)[C@@H](C)O)C(=O)NCC(=O)N1CCC[C@@H]1C(=O)N[C@@H](Cc1ccccc1)C(=O)N[C@@H](C)C(=O)N[C@@H](Cc1ccccc1)C(N)=O [compound 713] | – |
| 0.06 | Ac-WVTHRLAGLLSRSGGVVKNNFVPTDVGPFAF-NH2 [compound 5] | IC50 (CGRP1 receptor; Table 3, unconjugated CGRP peptide analogs, n = 2-4): 0.14 nM; IC50 (CGRP1 receptor; Table 4, 20 k PEG-conjugated vs unconjugated peptides, n = 2-4): 0.14 nM |
| 1.33 | 686 (Ac-WVTHRLAGLLSRSGGVVK(20 kDa PEG)NNFVPTDVGPFAF-NH2) [compound 686] | – |
| 0.58 | Ac-WVTHRLAGLLSRSGGVVRCNFVPTDVGPFAF-NH2 [compound 680] | – |
| 0.49 | 687 (Ac-WVTHRLAGLLSRSGGVVK(20 kDa PEG)NNFVPTDVGPFAF-NH2) [compound 687] | – |
| > 1000 | CC(C)[C@H](NC(=O)[C@H](CC(=O)O)NC(=O)[C@@H](NC(=O)[C@@H]1CCCN1C(=O)[C@@H](NC(=O)[C@@H](N)Cc1ccccc1)C(C)C)[C@@H](C)O)C(=O)NCC(=O)N1CCC[C@H]1C(=O)N[C@H](Cc1ccccc1)C(=O)N[C@@H](C)C(=O)N[C@@H](Cc1ccccc1)C(N)=O [compound 712] | – |
| > 1000 | H-FVPTDVAPFAF-NH2 [compound 717] | – |
